From patent US11912706B2, “Crystal forms of a POL1 inhibitor” (PIMERA, INC., priority 2017, dated 2024)
Converted amounts (≈) assume the structure as drawn.

Legend:
Assay type in all cases: physicochemical
[1] = Gravimetric Vapor Sorption (GVS); details: up to 90% relative humidity (RH)
Method: Approximately 10-20 mg of sample was placed into a mesh vapor sorption balance pan and loaded into an IGAsorp Moisture Sorption Analyzer balance by Hiden Analytical.
The sample was subjected to a ramping profile from 40% to 90% relative humidity (RH) at 10% increments, maintaining the sample at each step until a stable weight had been achieved (98% step completion). After completion of the sorption cycle, the sample was dried using the same procedure to 0% RH, and finally taken back to the starting point of 40% RH. The weight change during the sorption/desorption cycles was plotted, allowing for the hygroscopic nature of the sample to be determined.

[2] = Rapid solvent solubility screen; details: thermodynamic from solid
Method: Thirteen solvents were chosen for a rapid solvent solubility screen (See, Table 1). 10 mg of multiphasic Compound (I) prepared according to Example 1 was placed in each of 13 vials and 5 volume aliquots of the appropriate solvent systems were added to each vial.
Between each addition, the mixture was checked for dissolution and if no dissolution was apparent, the mixture was heated to 40° C. and checked again. This procedure was continued until dissolution was observed or until 100 volumes of solvent had been added.

[3] = 7 day stability test of crystal forms (PXRD post storage); details: 7-day storage
Method: 10 mg of Forms 1, 2, 3, 4 and 5 were weighed out into separate vials.
[…] After completion, PXRD analysis was performed on each of these samples.

[4] = Competitive slurrying of Form 1 and Form 5; details: dichloromethane, heptane, methanol; ambient, 60° C. or 35° C.; 24 hours
Method: Saturated solutions of Compound (I) in multiphasic form were created in two solutions each dichloromethane, heptane and methanol.
10 mg of Form 1 and Form 5 were added to each vial. […] was stirred at ambient conditions for a period of 24 hours, while the other heptane and methanol vials were stirred at 60° C. for 24 hours.
The remaining dichloromethane vial was stirred at 35° C. for 24 hours. The resulting material was analyzed by PXRD, before being dried with a vacuum pump overnight to dry before DSC analysis of samples.

[5] = Further stability studies of Form 1 (2 and 4 weeks; PXRD, NMR, HPLC)
Method: 10 mg of Form 1 was weighed out into each of 12 vials. […] vials were placed in each storage condition of: (1) 40° C. with an open cap; (2) 75% RH with an open cap; (3) 50° C. with a closed cap; and (4) room temperature with a closed cap.
Two (2) vials were extracted at each time point of 2 and 4 weeks and PXRD, NMR and HPLC analysis was performed.

[6] = ambient conditions (closed vial)

CNC(=O)c1cc2ccc(N3CCCN(C)CC3)nc2n2c1nc1ccccc12 [Compound (I), N-methyl-2-(4-methyl-1,4-diazepan-1-yl)benzo[4,5]imidazo[1,2-a][1,8]naphthyridine-6-carbaxomide]
hygroscopic nature (GVS) [1]: non-hygroscopic
mass uptake (GVS) [1]: 0.8%
solubility ([2]; acetonitrile, 40 °C, organic solvent or mixture): < 10000 µg/mL
solubility ([2]; dichloromethane, organic solvent or mixture): 200000 µg/mL (≈ 515 mM)
solubility ([2]; dimethylformamide, 40 °C, organic solvent or mixture): < 10000 µg/mL
solubility ([2]; ethanol, 40 °C, organic solvent or mixture): < 10000 µg/mL
solubility ([2]; ethyl acetate, 40 °C, organic solvent or mixture): < 10000 µg/mL
solubility ([2]; heptane, 40 °C, organic solvent or mixture): < 10000 µg/mL
solubility ([2]; majority of the thirteen solvents assessed, 40 °C, organic solvent or mixture, majority of solvents assessed): < 10000 µg/mL
solubility ([2]; methanol, organic solvent or mixture): 12500 µg/mL (≈ 32.2 mM)
solubility ([2]; organic solvent or mixture, Acetone, up to 100 volumes, heated to 40° C. if no dissolution): < 10000 µg/mL
solubility ([2]; propan-2-ol, 40 °C, organic solvent or mixture): < 10000 µg/mL
solubility ([2]; t-butylmethyl ether, 40 °C, organic solvent or mixture): < 10000 µg/mL
solubility ([2]; tetrahydrofuran, 40 °C, organic solvent or mixture): < 10000 µg/mL
solubility ([2]; toluene, 40 °C, organic solvent or mixture): < 10000 µg/mL
solubility ([2]; water, 40 °C): < 10000 µg/mL

CNC(=O)c1cc2ccc(N3CCCN(C)CC3)nc2n2c1nc1ccccc12 [Form 4, N-methyl-2-(4-methyl-1,4-diazepan-1-yl)benzo[4,5]imidazo[1,2-a][1,8]naphthyridine-6-carbaxomide]
Form stability after storage (PXRD) ([3]; 40° C./75% RH (closed vial)): transitions to Form 1
Form stability after storage (PXRD) [3, 6]: stable and maintains its form

CNC(=O)c1cc2ccc(N3CCCN(C)CC3)nc2n2c1nc1ccccc12 [Form 3, N-methyl-2-(4-methyl-1,4-diazepan-1-yl)benzo[4,5]imidazo[1,2-a][1,8]naphthyridine-6-carbaxomide]
Form stability after storage (PXRD) ([3]; 40° C./75% RH (closed vial)): transitions to Form 1
Form stability after storage (PXRD) [3, 6]: stable and maintains its form

CNC(=O)c1cc2ccc(N3CCCN(C)CC3)nc2n2c1nc1ccccc12 [Form 2, N-methyl-2-(4-methyl-1,4-diazepan-1-yl)benzo[4,5]imidazo[1,2-a][1,8]naphthyridine-6-carbaxomide]
Form stability after storage (PXRD) ([3]; 40° C./75% RH (closed vial)): transitions to Form 1
Form stability after storage (PXRD) [3, 6]: stable and maintains its form

CNC(=O)c1cc2ccc(N3CCCN(C)CC3)nc2n2c1nc1ccccc12 [Form 5, N-methyl-2-(4-methyl-1,4-diazepan-1-yl)benzo[4,5]imidazo[1,2-a][1,8]naphthyridine-6-carbaxomide]
Form transition in competitive slurry (PXRD of damp slurry residue) [4]: transition from Form 5 towards Form 1
Form stability after storage (PXRD) ([3]; 40° C./75% RH (closed vial)): stable and maintains its form
Form stability after storage (PXRD) [3, 6]: stable and maintains its form

CNC(=O)c1cc2ccc(N3CCCN(C)CC3)nc2n2c1nc1ccccc12 [Form 1, N-methyl-2-(4-methyl-1,4-diazepan-1-yl)benzo[4,5]imidazo[1,2-a][1,8]naphthyridine-6-carbaxomide]
Structural integrity post stability testing (NMR) ([5]; 2 and 4 weeks, 40° C./75% RH, 50° C., room temperature): maintains its structural integrity and does not degrade
Form stability after storage (PXRD) ([5]; 2 weeks and 4 weeks, 40° C./75% RH, 50° C. and RT): stable and maintains its form
% Purity (HPLC) post stability studies ([5]; 40° C./75% Relative Humidity, 2 weeks): 99.3%
% Purity (HPLC) post stability studies ([5]; 40° C./75% Relative Humidity, 4 weeks): 99.6%
% Purity (HPLC) post stability studies ([5]; 50° C./Ambient % RH, 2 weeks): 99.4%
% Purity (HPLC) post stability studies ([5]; 50° C./Ambient % RH, 4 weeks): 99.7%
% Purity (HPLC) post stability studies ([5]; Room Temperature, 2 weeks): 99.2%
% Purity (HPLC) post stability studies ([5]; Room Temperature, 4 weeks): 99.1%
Form stability after storage (PXRD) ([3]; 40° C./75% RH (closed vial)): stable and maintains its form
Form stability after storage (PXRD) [3, 6]: stable and maintains its form
